Experimental data: paper PMC8438977, “Isolation of bioactive compounds from medicinal plants used in traditional medicine: Rautandiol B, a potential lead compound against Plasmodium falciparum” (BMC Complementary Medicine and Therapies, 2021)
In brackets after ≈: the same amount, converted by molar mass. Read-outs that look alike come from different tables or passages of the source.

Key:
[1] = tested on: T. brucei rhodesiense (STIB-900); test: Anti-trypanosomal assay (Alamar Blue, 72 h); assay type: cell-based, Trypanosoma brucei rhodesiense
Experimental: T. brucei rhodesiense (STIB-900) was maintained in Minimal Essential Medium (MEM) with Earle’s salts supplemented with 3 g/L sodium bicarbonate, 4.5 g/L glucose, 25 mM HEPES, pH 7.3, 0.05 mM bathocuproinedisulfonic acid disodium salt, 1.5 mM L-cysteine, 1 mM hypoxanthine, 0.16 mM thymidine, 1 mM sodium pyruvate, 0.2 mM 2-mercaptoethanol, 1% MEM non-essential amino acid, and 15% heated fetal bovine serum, at 37 °C in a 5% CO2 incubator. To assay anti-Tbr activity, a modified reported protocol was used. Briefly, 2 × 10^4 T. brucei rhodesiense parasites in 175 μL culture media were incubated with 25 μL of varying concentrations of each compound in a 96-well plate under the same culture conditions. Following 72 h incubation, 20 μL Alamar Blue (a resazurin solution) was added in each well. The mixture was further incubated for 3 h. The fluorescence signals were measured by a spectrofluorometer at ex530/em585 nm.

[2] = tested on: Mycobacterium tuberculosis H37Rv (ATCC 27294); test: Mycobacterium tuberculosis assay (Microplate Alamar Blue Assay, MIC); assay type: cell-based; settings: pure compounds and controls, read-out: MTB H37Rv (MIC μM)
[3] = tested on: Plasmodium falciparum K1CB1; test: Antimalaria assay, [3H] hypoxanthine incorporation, K1CB1 strain; assay type: cell-based; settings: for IC50: Plasmodium falciparum, read-out: P. f (IC50 μM) K1CB1
Experimental: (§1) Plasmodium falciparum TM4/8.2 and K1CB1 strains were maintained in RPMI 1640 medium supplemented with 8% human serum, 2.5 mM HEPES and 2 g/L sodium bicarbonate. Parasite cultures were incubated at 37 °C in a 3% CO2 incubator. The crude extracts/pure compounds were tested against TM4/8.2 and K1CB1 P. falciparum in vitro by the modified [^3H] hypoxanthine incorporation assay. Briefly, stock solutions of the crude extracts or pure compounds were prepared in DMSO. Various concentrations of the samples were incubated with malaria parasites with a final volume of 225 μL, 1% parasitemia, 1.5% hematocrit, 0.1% dimethylsulfoxide (DMSO) in 96-well plates. Plates were incubated for 16–18 h. Then, 25 μL [^3H]-hypoxanthine solution was added and incubated for 20 h. The parasites were harvested onto a UniFilter-96 GF/B plate (PerkinElmer, USA). The filters in the plates were air-dried, and then 25 μL of liquid scintillation fluid (Microscint, Packard) was added. The radioactivity was then measured using a microplate scintillation counter (TopCount, Packard). The IC50 values of the crude extracts/ pure compounds were determined.

[4] = tested on: Plasmodium falciparum TM4/8.2; test: Antimalaria assay, [3H] hypoxanthine incorporation, TM4/8.2 strain; assay type: cell-based
Experimental: as §1

α-glucosidase (AG) = target: T1, α-glucosidase (AG) (Saccharomyces cerevisiae, UniProt P53341); test: biochemical; parameters: species or system S. cerevisiae; settings: for IC50: in 50% DMSO; for inhibition at 250 µg/mL: samples 250 μg/mL in 50% DMSO, read-out: % Inhibition (AGI activity)
T1 construct: purchased Sigma
T1 sequence (P53341 whole entry): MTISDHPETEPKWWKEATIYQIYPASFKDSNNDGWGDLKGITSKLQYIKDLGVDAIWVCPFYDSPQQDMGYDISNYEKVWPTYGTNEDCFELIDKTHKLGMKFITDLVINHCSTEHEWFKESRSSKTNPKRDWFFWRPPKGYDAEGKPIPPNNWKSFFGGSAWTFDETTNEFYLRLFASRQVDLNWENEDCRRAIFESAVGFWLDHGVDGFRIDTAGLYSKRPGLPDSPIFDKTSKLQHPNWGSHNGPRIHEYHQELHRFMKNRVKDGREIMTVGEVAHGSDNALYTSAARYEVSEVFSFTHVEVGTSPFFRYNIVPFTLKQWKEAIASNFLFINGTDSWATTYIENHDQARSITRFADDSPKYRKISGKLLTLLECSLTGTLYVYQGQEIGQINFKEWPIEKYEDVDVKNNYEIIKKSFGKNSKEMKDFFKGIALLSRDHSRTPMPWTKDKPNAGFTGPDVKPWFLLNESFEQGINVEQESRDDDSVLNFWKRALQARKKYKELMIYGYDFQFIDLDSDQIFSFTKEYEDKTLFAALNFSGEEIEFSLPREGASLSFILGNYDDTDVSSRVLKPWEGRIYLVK
Experimental: AGI values of extracts and pure phytochemicals were quantitatively determined in a 96-well plastic plate according to the method described by Nguyen et al.. The enzyme was incubated with the samples dissolved in DMSO for 5 min before adding the substrate. The inhibition was measured spectrophotometrically in 20 mM sodium phosphate buffer pH 6.0 at 37 °C using 3.0 mM p-nitrophenyl α-D-glucopyranoside (Sigma) as the substrate and 0.25 units/mL of AG from S. cerevisiae (Sigma). The absorbance at 405 nm was measured using a microplate reader (BioTek ELx808 microplate reader, USA).

α-amylase (AA) = test: α-amylase inhibitory activity (AAI), starch-iodine assay; assay type: biochemical; settings: in 50% DMSO
Experimental: AAI values were determined using a microplate-based starch–iodine assay. Assay reactions were initiated by adding 40 μL of starch (Sigma S-2630) solution (2.0 g/L) and 40 μL of enzyme in 0.1 M phosphate buffer at pH 7.0 to microplate wells. The enzyme was incubated with the samples for 5 min before adding the substrate. To minimize evaporative loss during incubation, a plastic mat was used to cover the microplate. […] Following color development, the absorbance at 580 nm was measured using a microplate reader (Bio-TEK ELx808 microplate reader, USA).

[5] = earlier reports; cited from earlier work
VERO cells = tested on: VERO cells; parameters: method as in PMID 32798746; settings: cited from earlier work
BHK21 cells = tested on: BHK21 cells; parameters: method as in PMID 32798746; settings: cited from earlier work
[6] = pure compounds and control; 72 h; read-out: T. br (IC50 μM)
[7] = pure compounds and controls, strain K1CB1
[8] = Trypanosoma brucei, RHODESIENSE, 72 h, pure compounds and control; 72 h; read-out: T. br (IC50 μM)
[9] = pure compounds and controls, strain TM4/8.2, read-out: P. f (IC50 μM) TM4/8.2
[10] = read-out: P. f (IC50 μM) TM4/8.2
[11] = Trypanosoma brucei, RHODESIENSE; pure compounds and control; 72 h; read-out: T. br (IC50 μM)

SMILES | MIC [2] [µM] | IC50 [3, 7] [µM] | IC50 [1, 8] [µM] | IC50 [4, 9] [µM] | inhibition at 250 µg/mL (α-glucosidase (AG)) [%] | further results
CC(C)=CCc1cc2c(cc1O)OC[C@H]1c3cc4c(cc3O[C@@H]21)OCO4 | – | – | – | – | – | SR (safety ratio), T. brucei rhodesiense [1]: > 5.83; IC50 [1, 6]: 4.87 ± 0.49 µM
O=c1c(O)c(-c2ccc(O)cc2)oc2cc(O)cc(O)c12 [Compound 1, kempherol] | > 20 | > 50 | 10.3 ± 0.38 | > 50 | – | IC50 [1, 6]: 8.74 ± 0.49 µM; SR (safety ratio), T. brucei rhodesiense ([1]; safety ratio): 3.3
O=c1c(O)c(-c2ccc(O)c(O)c2)oc2cc(O)cc(O)c12 [Compound 2, quercetin] | > 20 | > 50 | 8.44 ± 0.16 | > 50 | – | IC50 [1, 6]: 8.91 ± 0.03 µM; SR (safety ratio), T. brucei rhodesiense ([1]; safety ratio): 4.52
Oc1cc(O)c2c(c1)O[C@H](c1ccc(O)c(O)c1)[C@@H](O)C2 [Compound 3, (+)-catechin] | > 20 | > 100 | > 100 | – | 97.5 ± 0.6 | IC50 (α-glucosidase (AG)): 360 µM; IC50 (α-amylase (AA)): 2260 µM; IC50 [4, 10]: > 100 µM
OC[C@H]1O[C@@H](OCCc2ccc(O)cc2)[C@H](O)[C@@H](O)[C@@H]1O [Compound 4, salidroside] | > 20 | > 100 | > 100 | > 100 | 47.7 ± 1.8 | IC50 (α-glucosidase (AG)): 1380 µM
c1cc2cc3c(cc2o1)OCc1c-3oc2cc3c(cc12)OCO3 [Compound 5, neoduleen] | > 62.1 | > 31 | – | > 31 | – | –
c1cc2cc3c(cc2o1)OC[C@H]1c2cc4c(cc2O[C@@H]31)OCO4 [Compound 6, neodulin] | > 64.9 | > 32.5 | – | > 32.5 | – | –
COc1cc2c(cc1-c1cc3cc4ccoc4cc3oc1=O)OCO2 [Compound 10, pachyrrhizine] | > 64.7 | – | – | – | – | IC50 [3]: > 32.3 µM; IC50 [4, 10]: > 32.3 µM
COc1cc2c(cc1C1COc3cc4occc4cc3C1=O)OCO2 (stereo not drawn) [Compound 11, neotenone] | > 62 | > 31 | 17 ± 1.83 | > 31 | – | melting point: 174 to 175 °C
COc1ccc2c(c1)OCC(c1cc3c(cc1OC)OCO3)C2=O (stereo not drawn) [Compound 12, 7-methoxy-3-(6-methoxybenzo [d] [1,3]dioxol-5-yl) chroman-4-one] | – | – | – | – | 17.7 ± 0.3 | melting point: 133 to 135 °C
O=C1c2cc3ccoc3cc2O[C@]2(O)COc3cc4c(cc3[C@H]12)OCO4 [Compound 13, 12a-hydroxydolineon] | – | – | – | – | – | melting point: 155 to 156 °C
O=C1c2cc3ccoc3cc2O[C@@H]2COc3cc4c(cc3[C@H]12)OCO4 [Compound 14, dolineon] | > 59.9 | – | – | – | 54.2 ± 8.9 | IC50 [3]: > 29.6 µM; IC50 [1, 11]: 18.7 ± 3.2 µM; IC50 (α-glucosidase (AG)): 660 µM; IC50 [4, 10]: > 29.6 µM
CC(C)=CCc1cc2c(cc1O)OC[C@@H]1c3cc4c(cc3O[C@H]21)OCO4 [Compound 15, (−)-2-isopentenyl-3-hydroxy-8-9-methylenedioxypterocarpan] | > 56.8 | > 28.4 | 4.87 ± 0.49 | > 28.4 | 31.5 ± 2.1 | SR (safety ratio), T. brucei rhodesiense ([1]; safety ratio): > 5.83
COc1ccc(C2COc3cc4occc4cc3C2=O)c(OC)c1OC (stereo not drawn) [Compound 16, nepseudin] | > 56.4 | > 28.2 | – | > 28.2 | – | –
COc1cc2c(cc1O)[C@H]1Oc3cc4c(cc3[C@H]1CO2)OCO4 [Compound 19, (−)-2-hydroxypterocarpin] | > 56.8 | > 28.4 | – | > 28.4 | – | melting point: 223 to 225 °C
C=C(C)[C@H]1Cc2c(ccc3c2O[C@@H]2COc4cc(OC)c(OC)cc4[C@@H]2C3=O)O1 [Compound 20, rotenone] | > 52.3 | – | – | – | – | IC50 [3]: > 26.2 µM; IC50 ([1]; Trypanosoma brucei, RHODESIENSE, 72 h, read-out: T. br (IC50 μM)): 7.51 ± 0.17 µM; IC50 [4, 10]: > 26.2 µM; cytotoxicity [5]: cytotoxic
C=C(C)C1Cc2c(ccc3c2O[C@@H]2COc4cc(OC)c(OC)cc4[C@]2(O)C3=O)O1 (stereo partly drawn) [Compound 21, 12a-hydroxyrotenone] | > 55.2 | – | – | – | 19.9 ± 11.4 | IC50 [3]: > 27.6 µM; IC50 [1, 11]: 8.63 ± 1.14 µM; IC50 [4, 10]: > 27.6 µM; cytotoxicity [5]: cytotoxic
COc1cc2c(cc1-c1coc3cc4occc4cc3c1=O)OCO2 [Compound 22, dehydroneotenone] | > 61.7 | > 30.9 | – | > 30.9 | – | –
CC1(C)Oc2cc3c(cc2CC1O)[C@@H]1Oc2cc(O)ccc2[C@@H]1CO3 (stereo partly drawn) [Compound 23, rautandiol A] | – | – | – | – | 83.9 ± 1 | IC50 (α-glucosidase (AG)): 280 µM; melting point: 194 to 196 °C
CC(C)(O)C1Cc2cc3c(cc2O1)OC[C@H]1c2ccc(O)cc2O[C@@H]31 (stereo partly drawn) [Compound 24, rautandiol B] | > 20 | 0.74 ± 0.29 | 23.5 ± 1.59 | 0.4 ± 0.07 | 29.3 ± 3.1 | cytotoxicity on VERO cells (VERO cells): non-cytotoxic; SR (safety ratio), P. falciparum K1CB1 ([3]; safety ratio): 133; cytotoxicity on BHK21 cells (BHK21 cells): non-cytotoxic; melting point: 209 to 213 °C
CC1(C)N=C(N)N=C(N)N1c1ccc(Cl)cc1 [Cycloguanil, reference compound] | – | 10.7 ± 1.62 | – | 0.076 ± 0.016 | – | –
NNC(=O)c1ccncc1 [Isoniazid, reference compound] | 0.02 (≈ 0.00274 µg/mL) | – | – | – | – | –
N=C(N)c1ccc(OCCCCCOc2ccc(C(=N)N)cc2)cc1 [Pentamidine, reference compound] | – | – | 0.007 ± 4e-05 | – | – | –
CCc1nc(N)nc(N)c1-c1ccc(Cl)cc1 [Pyrimethamine, reference compound] | – | 23.2 ± 2.24 | – | 0.095 ± 0.02 | – | –
CO[C@H]1/C=C/O[C@@]2(C)Oc3c(C)c(O)c4c(O)c(c(/C=N/N5CCN(C)CC5)c(O)c4c3C2=O)NC(=O)/C(C)=C\C=C\[C@H](C)[C@H](O)[C@@H](C)[C@@H](O)[C@@H](C)[C@H](OC(C)=O)[C@@H]1C [Rifampin, reference compound] | 0.08 (≈ 0.0658 µg/mL) | – | – | – | – | –
